Measurements as given in the NIST ThermoML archive (doi:10.1021/je0500734).

Experiments:
[1] = 101.33 kPa, Liquid; for speed of sound: acoustic time of flight gauge
[2] = xn = mol fraction of the nth substance listed; conditions: 101.33 kPa, Liquid; for speed of sound: acoustic time of flight gauge

[2H]C([2H])([2H])[N+](=O)[O-] [deuteronitromethane]
[1]
Conditions | kinematic viscosity [m2/s] | mass density [kg/m3] | speed of sound [m/s] | viscosity [mPa·s]
293.15 K | 6.05e-07 | 1194.74 | 1291.1 | –
295.15 K | 5.81e-07 | 1190.43 | 1283.2 | –
298.15 K | 5.7e-07 | 1187.71 | 1271.3 | –
300.15 K | 5.49e-07 | 1184.73 | 1263.3 | –
303.15 K | 5.26e-07 | 1181.86 | 1251.4 | –
303.5 K | 6.27e-07 | 1180.03 | – | 0.6274
305.15 K | 5.13e-07 | 1178.3 | 1243.5 | –
307.5 K | 5.82e-07 | 1172.08 | – | 0.5819
308.15 K | 4.92e-07 | 1173.28 | 1231.6 | –

[2H]C([2H])([2H])[N+](=O)[O-] [deuteronitromethane] + CCCCCO
[2]
Conditions | mass density, 303.5 K [kg/m3] | mass density, 307.5 K [kg/m3] | viscosity, 303.5 K [mPa·s] | viscosity, 307.5 K [mPa·s]
x1 = 0.08 | 823.07 | 819.05 | – | –
x1 = 0.103 | – | – | 2.46 | 2.158
x1 = 0.178 | 843.08 | 838.92 | – | –
x1 = 0.206 | – | – | 2.16 | 1.82
x1 = 0.245 | 858.21 | 853.8 | – | –
x1 = 0.302 | – | – | 1.796 | 1.517
x1 = 0.351 | 883.03 | 878.4 | – | –
x1 = 0.401 | 896.26 | 891.53 | – | –
x1 = 0.418 | – | – | 1.447 | 1.251
x1 = 0.49 | 922.6 | 917.6 | – | –
x1 = 0.502 | – | – | 1.24 | 1.077
x1 = 0.598 | – | – | 1.069 | 0.9159
x1 = 0.615 | 966.2 | 960.5 | 1.033 | 0.8939
x1 = 0.644 | – | – | 1.026 | 0.8578
x1 = 0.669 | 988.3 | 982.16 | – | –
x1 = 0.749 | 1024.62 | 1018.46 | – | –
x1 = 0.758 | – | – | 0.7821 | 0.7064
x1 = 0.801 | – | – | 0.7859 | 0.6878
x1 = 0.86 | 1084.42 | 1077.9 | – | –
x1 = 0.904 | – | – | 0.6496 | 0.5971
x1 = 0.959 | 1149.88 | 1142.39 | – | –
x1 = 1 | 1180.03 | 1172.08 | 0.6274 | 0.5819

C[N+](=O)[O-] [nitromethane]
[1]
Conditions | kinematic viscosity [m2/s] | mass density [kg/m3] | speed of sound [m/s] | viscosity [mPa·s]
293.15 K | 6.01e-07 | 1137.21 | 1337.6 | –
295.15 K | 5.77e-07 | 1133.14 | 1329.5 | –
298.15 K | 5.62e-07 | 1130.42 | 1317.4 | –
300.15 K | 5.47e-07 | 1127.55 | 1309.4 | –
301.15 K | – | 1126.24 | 1305.3 | 0.6091
301.3 K | – | 1126.04 | – | 0.6074
303.15 K | 5.25e-07 | 1123.49 | 1297.3 | –
305.15 K | 5.1e-07 | 1120.82 | 1289.2 | –
306.15 K | – | 1119.36 | 1285.2 | 0.5636
306.3 K | – | 1119.15 | – | 0.5623
308.15 K | 4.89e-07 | 1116.54 | 1277.1 | –

C[N+](=O)[O-] [nitromethane] + CCCCCO
[2]
Conditions | mass density [kg/m3] | speed of sound [m/s] | viscosity [mPa·s]
301.15 K, x1 = 0.065 | 818.89 | – | –
301.15 K, x1 = 0.099 | – | 1258.1 | –
301.15 K, x1 = 0.113 | – | – | 2.379
301.15 K, x1 = 0.127 | 828.49 | – | –
301.15 K, x1 = 0.186 | 838.83 | – | –
301.15 K, x1 = 0.202 | – | 1252.1 | –
301.15 K, x1 = 0.203 | – | – | 2.119
301.15 K, x1 = 0.26 | 852.95 | – | –
301.15 K, x1 = 0.302 | – | 1248.3 | –
301.15 K, x1 = 0.31 | 863.38 | – | –
301.15 K, x1 = 0.314 | – | – | 1.743
301.15 K, x1 = 0.398 | 883.3 | – | 1.487
301.15 K, x1 = 0.401 | – | 1245.4 | –
301.15 K, x1 = 0.469 | – | – | 1.231
301.15 K, x1 = 0.502 | – | 1242.7 | –
301.15 K, x1 = 0.503 | 910.3 | – | –
301.15 K, x1 = 0.516 | – | – | 1.111
301.15 K, x1 = 0.54 | 920.98 | – | –
301.15 K, x1 = 0.616 | 944.27 | – | –
301.15 K, x1 = 0.619 | – | 1243.9 | –
301.15 K, x1 = 0.62 | – | – | 0.9425
301.15 K, x1 = 0.699 | 973.7 | – | –
301.15 K, x1 = 0.701 | – | 1247 | –
301.15 K, x1 = 0.752 | – | – | 0.7812
301.15 K, x1 = 0.753 | 994.05 | – | –
301.15 K, x1 = 0.801 | – | – | 0.7348
301.15 K, x1 = 0.802 | 1016.76 | 1258.9 | –
301.15 K, x1 = 0.824 | – | – | 0.679
301.15 K, x1 = 0.849 | – | – | 0.673
301.15 K, x1 = 0.902 | – | 1281.2 | –
301.15 K, x1 = 0.911 | 1070.91 | – | –
301.15 K, x1 = 0.934 | – | – | 0.6149
301.15 K, x1 = 1 | 1126.24 | 1305.3 | 0.6091
306.15 K, x1 = 0.065 | 815.14 | – | –
306.15 K, x1 = 0.099 | – | 1240.6 | –
306.15 K, x1 = 0.113 | – | – | 2.009
306.15 K, x1 = 0.127 | 824.47 | – | –
306.15 K, x1 = 0.186 | 834.67 | – | –
306.15 K, x1 = 0.202 | – | 1234.6 | –
306.15 K, x1 = 0.203 | – | – | 1.744
306.15 K, x1 = 0.26 | 848.61 | – | –
306.15 K, x1 = 0.302 | – | 1230.6 | –
306.15 K, x1 = 0.31 | 858.74 | – | –
306.15 K, x1 = 0.314 | – | – | 1.473
306.15 K, x1 = 0.398 | 878.5 | – | 1.282
306.15 K, x1 = 0.401 | – | 1227.7 | –
306.15 K, x1 = 0.469 | – | – | 1.093
306.15 K, x1 = 0.502 | – | 1225.5 | –
306.15 K, x1 = 0.503 | 905.13 | – | –
306.15 K, x1 = 0.516 | – | – | 0.9447
306.15 K, x1 = 0.54 | 915.83 | – | –
306.15 K, x1 = 0.616 | 939 | – | –
306.15 K, x1 = 0.619 | – | 1226.6 | –
306.15 K, x1 = 0.62 | – | – | 0.7854
306.15 K, x1 = 0.699 | 967.99 | – | –
306.15 K, x1 = 0.701 | – | 1230.2 | –
306.15 K, x1 = 0.752 | – | – | 0.6945
306.15 K, x1 = 0.753 | 987.94 | – | –
306.15 K, x1 = 0.801 | – | – | 0.6634
306.15 K, x1 = 0.802 | 1010.21 | 1241.7 | –
306.15 K, x1 = 0.824 | – | – | 0.6288
306.15 K, x1 = 0.849 | – | – | 0.6161
306.15 K, x1 = 0.902 | – | 1262.1 | –
306.15 K, x1 = 0.911 | 1064.52 | – | –
306.15 K, x1 = 0.934 | – | – | 0.5661
306.15 K, x1 = 1 | 1119.36 | 1285.2 | 0.5636
